Reference: US11141491B2, “PH-sensitive lipid nanoparticles for encapsulation of anticancer drugs and microRNA and use thereof” (National Yang-Ming University, priority 2018, dated 2021)

Assays:
HCT116 cells [1] = assay: Endocytosis mechanisms for uptake of DiI/Lip-RFKH; format: cell-based, human; conditions: 3 h-incubation, endocytosis inhibitor added
HCT116 cells [2] = assay: Cell viability, sulforhodamine B assay, HCT116; format: cell-based, human; conditions: 48 h, SRB
Protocol: The cytotoxicity of formulations in rat small intestinal epithelial IEC-6 cells and human colorectal cancer HCT116 cells was determined using a sulforhodamine B (SRB) assay. After 48-h incubation with various formulations, the cells were stained with SRB for 10 min. The absorbance at 540 nm was detected with a microplate TECAN reader.

[3] = pH-sensitive release (dialysis against PBS); format: physicochemical; conditions: both pH 7.4 and pH 6.5, 37° C.
Protocol: Irinotecan- or miR-loaded formulations were placed in a dialysis bag (1,000-3,500 MWCO) and dialyzed separately against PBS at pH 7.4 and 6.5. At the indicated time, solution was withdrawn from the incubation medium. The irinotecan concentrations were determined by HPLC to calculate the cumulative drug release %.

IEC-6 cells = assay: Cell viability, sulforhodamine B assay, IEC-6; format: cell-based, rat; conditions: noncancerous IEC-6 cells, 48 h, SRB
[4] = Biodistribution of irinotecan in SAS-luc-bearing nude mice; format: in vivo; conditions: UV spectrophotometer
Protocol: The biodistribution of irinotecan of different formulations in SAS-bearing mice was analyzed with UV spectrophotometer. (*statistical significance at P<0.05; **statistical significance at P<0.01; ***statistical significance at P<0.001).

[5] = Biochemical tests, H&E staining and TUNEL assay in CT26 tumor-bearing mice; format: in vivo; conditions: 48 h after last treatment
Protocol: Tumor-bearing mice were treated as described above. Blood samples (170 μl) were taken from the orbital sinus of mice 48 h after the final treatment. After harvesting and centrifugation for 15 min, liver, kidney and heart functions were assessed by detecting the serum levels of glutamate pyruvate transaminase (GPT), creatinine (CRE), and creatine kinase-MB (CK-MB) using corresponding activity assay kits (Fujifilm, Tokyo, Japan) and a clinical dry chemistry analyzer (Fuji Dri-Chem 7000V, Fujifilm Corp.). Additionally, the tumors and intestines were fixed in 4% paraformaldehyde overnight, embedded in paraffin, and cut into 5-μm-thick sections for H&E staining, and the histology of these samples was examined using an Olympus microscope.
TUNEL assay was performed to assess in vivo apoptosis in CT26 tumor-bearing mice at 48 h after last treatment of different formulations.^[42] In brief, the samples were frozen and fixed in 4% paraformaldehyde for 20 min. After washing with PBS for 10 min, the samples were immersed on ice for 2 min. After mixing with reaction dispersion (50 μL) according to the manufacture's manual (In Situ Cell Death Detection Kit, Roche, Germany), the section samples were stained with Hoechst in the nuclei for comparison and monitored using CLSM.

CT26 tumor = assay: In vivo antitumor efficacy, IVIS and PET/CT imaging, body weight in CT26-bearing mice; conditions: 28 days
Protocol: Male BALB/c mice at the age of 6 weeks with body weights of 20±2 g were purchased from National Laboratory Animal Center (Taipei, Taiwan) and maintained in an individual ventilation cage system. The animals were ensured free access to sterilized food and water. CT-26 (10^5 cells in 0.1 ml PBS) were injected subcutaneously into the right flank of mice to obtain tumor-bearing BALB/c mice. All processes performed on the animals were in accordance with the National Institutes of Health Guide for the Care and Use of Laboratory Animals and were approved by the National Yang-Ming University Animal Committee.
CT-26 cells (10^5 cells in 0.1 ml PBS) were injected subcutaneously into the right flank of mice to obtain tumor-bearing BALB/c mice. When tumor volume reached approximately 100 mm^3 (equation 4), the mice were randomly assigned to six groups (n=5 for each group). […] Mice were injected intravenously (IV) with Iri at 100 mg/kg and miR-200 at 1.25 mg/kg in different formulations every 7 days for 28 days. Fluorescence images were visualized one day after the final treatment using an IVIS […] (Caliper). […]
Tumor images were monitored using PET/CT. […]
Animal body weight and tumor size were detected every 3 or 4 days for 28 days. Tumor size was measured with a digital caliper and the tumor volume (V) was calculated (equation 4).

[6] = Biodistribution of irinotecan in CT26/tk-luc-bearing mice; format: in vivo; conditions: UV spectrophotometer
Protocol: The biodistribution of irinotecan of different formulations in CT26-bearing mice was analyzed by UV spectrophotometer (*statistical significance at P<0.05; **statistical significance at P<0.01; ***statistical significance at P<0.001).

CN(C)CCCN1c2ccccc2Sc2ccc(Cl)cc21 [chlorpromazine]
relative fluorescence intensity % of DiI/Lip-RFKH (HCT116 cells [1]): significant decreases

CCc1c2c(nc3ccc(OC(=O)N4CCC(N5CCCCC5)CC4)cc13)-c1cc3c(c(=O)n1C2)COC(=O)[C@]3(O)CC [irinotecan]
cytotoxicity / viability of HCT116 cells (HCT116 cells [2]; HCT116 cells): concentration-dependent inhibition
cytotoxicity in HCT116 cells (HCT116 cells [2]; irinotecan at 4×10^−6 M): ≈ 20%
release within 24 h [3]: 100%
hemolysis (rat blood cells): ≈ 10%
cytotoxicity to IEC-6 cells (IEC-6 cells): ≈ 30%
biodistribution of irinotecan [4]: majorly in the liver, kidney, and intestines
serum CKMB level [5]: provoked
serum CRE level [5]: provoked
serum GPT level [5]: provoked
body weight (CT26 tumor): continuous decrease
biodistribution of irinotecan [6]: mainly in the liver, kidney, and intestines

poly-L-lysine
relative fluorescence intensity % of DiI/Lip-RFKH (HCT116 cells [1]): significant decreases
